# Data: patent publication US20230276804A1, “A PESTICIDALLY ACTIVE MIXTURE COMPRISING PYRAZOLOPYRIDINE ANTHRANILAMIDE COMPOUND, OXIDES OR SALTS THEREOF” (priority 2020, published 2023)
# Where “and” joins values, the source holds several entries; their conditions need not be identical. Identical values can stand only once.
# Columns and labels:
# Format in all cases: in vivo
# Erysiphe cichoracearum = experiment: Preventive glasshouse test against Erysiphe cichoracearum in cucumber (Example K); conditions: single compound
# Method: The single compounds or the respective compound combinations were dissolved in 2% dimethyl sulfoxide/acetone and then mixed with water containing emulsifier to a calibrated spray volume of 50 mL. The test solutions were poured into spray bottles for further applications.
# To test the preventive activity of compounds, healthy young cucumber plants, raised in the greenhouse, were sprayed with the active compound preparation at the stated application rates inside the spray cabinets using hollow cone nozzles. One day after treatment, the plants were inoculated with a conidial suspension containing 2×10^5 Erysiphe cichoracearum inoculum. The inoculated plants were then kept in a greenhouse chamber at a temperature of 22-24° C. and 50-60% relative humidity for disease expression.
# A visual assessment of the performance of the compounds and the respective compound combinations was carried out by rating the disease severity (0-100% scale) on treated plants 3, 7, 10 and 15 days after application. Efficacy (% control) of the single compounds or compound combinations was calculated by comparing the disease rating in the treatment with the one of the untreated control. The compounds were also assessed for their plant compatibility by recording symptoms like necrosis, chlorosis and stunting. The results have been described for the compound of formula (I-III) in Table K.
# Plutella xylostella = experiment: Leaf dip method (cabbage leaves) against Plutella xylostella (Example C); conditions: single compound, 72 h
# Method: The leaf dip method was used, wherein the required quantity of the compound or respective compound combinations were weighed and dissolved in a test solution prepared in tubes. The tubes were put on a vortex at 2000 rpm for 90 min for proper mixing and then the test solutions were diluted with 0.01% Triton-X to the desired test concentration. Cabbage leaves were dipped into the solution for 10 seconds, shade dried for 20 min and then transferred to single cells of bioassay trays. A single second instar larva was released into each cell and the tray was covered with a lid. The bio-assay trays were kept under laboratory conditions at a temperature of 25° C. and relative humidity of 70%. Observations on dead, moribund and live larvae were recorded 72 h after the release. Percent mortality was calculated by combining dead and moribund larvae and comparing the result with the one of the untreated control. The results are shown for compound of formula (I-III) in Table C.
# Septoria nodorum = experiment: Preventive glasshouse test against Parastagonospora nodorum/Septoria nodorum/Stagnospora nodorum in wheat (Example J); conditions: single compound
# Method: The single compounds or respective compound combinations were dissolved in 2% dimethyl sulfoxide/acetone and then mixed with water containing emulsifier to a calibrated spray volume of 50 mL. The test solutions were poured into spray bottles for further applications.
# To test the preventive activity of compounds, healthy young wheat plants, raised in the greenhouse, were sprayed with the active compound preparation at the stated application rates inside the spray cabinets using hollow cone nozzles. One day after treatment, the plants were inoculated with a spore suspension containing 2.8×10^6 Stagnospora nodorum inoculum.
# The inoculated plants were then kept in a greenhouse chamber at 22-25° C. temperature and 90-100% relative humidity for disease expression.
# A visual assessment of the performance of the single compounds or compound combinations was carried out by rating the disease severity (0-100% scale) on treated plants 3, 7, 10 and 15 days after application. Efficacy (% control) of the single compounds and mixtures was calculated by comparing the disease rating in the treatment with the one of the untreated control. The compounds were also assessed for their plant compatibility by recording symptoms like necrosis, chlorosis and stunting. The results have been described for the compound of formula (I-III) in Table J.
# Phakopsora pachyrhizi = experiment: Preventive glasshouse test against Phakopsora pachyrhizi in soybean (Example H); conditions: single compound
# Method: The single compounds or the respective compound combinations were dissolved in 2% dimethyl sulfoxide/acetone and then mixed with water containing an emulsifier to a calibrated spray volume of 50 ml. The test solutions were poured into spray bottles for further applications.
# To test the preventive activity of compounds, healthy young Soybean plants, raised in the greenhouse, were sprayed with the active compound preparation at the stated application rates inside the spray cabinets using hollow cone nozzles. One day after treatment, the plants were inoculated with a suspension containing 2×10^5 Phakopsora pachyrhizi conidia. The inoculated plants were then kept in a greenhouse chamber at a temperature of 22-24° C. and 80-90% relative humidity for disease expression.
# A visual assessment of the performance of the single compounds and respective compound combinations was carried out by rating the disease severity (0-100% scale) on treated plants 3, 7, 10 and 15 days after application. Efficacy (% control) of the compounds was calculated by comparing the disease rating in the treatment with the one of the untreated control. The compounds were also assessed for their plant compatibility by recording symptoms like necrosis, chlorosis and stunting. The results have been described for the compound of formula (I-III) in Table H.
substance,measurement,setting,value
"6-(3-bromo-1-(3-chloropyridin-2-yl)-1H-pyrazole-5-carboxamido)-N-isopropyl-5-methylpyrazolo[1,5-a]pyridine-7-carboxamide [Compound (I-III)]",Observed Efficacy (%),Erysiphe cichoracearum; Conc. 100 ppm,17%
same,Observed Efficacy (%),Erysiphe cichoracearum; Conc. 500 ppm,17% and 19% and 28%
same,Observed Efficacy (%),Plutella xylostella; 0.05 ppm,12.5%
same,Observed Efficacy (%),Plutella xylostella; 0.1 ppm,12.5%
same,Observed Efficacy (%),Plutella xylostella; 0.5 ppm,25%
same,Observed Efficacy (%),Septoria nodorum; 100 ppm,24%
same,Observed Efficacy (%),Septoria nodorum; 500 ppm,32%
same,Observed Efficacy (%),Phakopsora pachyrhizi; 100 ppm,25%
same,Observed Efficacy (%),Phakopsora pachyrhizi; 500 ppm,56%
